Measurements: article PMC4450297, “Screening Active Compounds from Garcinia Species Native to China Reveals Novel Compounds Targeting the STAT/JAK Signaling Pathway” (BioMed Research International, 2015)
Where two headings read alike, the source gives them in different places.

How the values were obtained:
Test in all cases: Cell panel screen (CellTiter-Glo)
Format in all cases: cell-based, human
Settings in all cases: Homo sapiens, read-out: Percent Inhibition
[1] = test system: BT-474
Method in brief: (§1)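 Tested once at 20 μM (final) over 72 h in cells cultured with 10% FBS. Luciferase/ATP luminescence read-out, background-corrected and normalised to vehicle controls.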

[2] = test system: BT-549
Method in brief: as §1

[3] = test system: Bel-7402
Method in brief: as §1

[4] = test system: C3A
Method in brief: as §1

[5] = test system: C8166
Method in brief: as §1

[6] = test system: CCF-STTG1
Method in brief: as §1

[7] = test system: ChaGo-K-1
Method in brief: as §1

[8] = test system: Colo 205
Method in brief: as §1

[9] = test system: HCC1569
Method in brief: as §1

[10] = test system: HCC1599
Method in brief: as §1

[11] = test system: HCC1937
Method in brief: as §1

[12] = test system: HEC-1-A
Method in brief: as §1

[13] = test system: HGC-27
Method in brief: as §1

[14] = test system: HPAF-II
Method in brief: as §1

[15] = test system: HT-1197
Method in brief: as §1

[16] = test system: M059J
Method in brief: as §1

[17] = test system: NCI-H1623
Method in brief: as §1

[18] = test system: NCI-H1694
Method in brief: as §1

[19] = test system: NCI-H1770
Method in brief: as §1

[20] = test system: NCI-H2347
Method in brief: as §1

[21] = test system: NCI-H2405
Method in brief: as §1

[22] = test system: NCI-H28
Method in brief: as §1

[23] = test system: NCI-H524
Method in brief: as §1

[24] = test system: Panc 03.27
Method in brief: as §1

[25] = test system: RL95
Method in brief: as §1

[26] = test system: T47D
Method in brief: as §1

[27] = test system: T98G
Method in brief: as §1

[28] = test system: ZR-75-30
Method in brief: as §1

With CC(C)=CCC/C(C)=C/Cc1c(O)c(CC=C(C)C)c2c(c1O)C(=O)C1=C[C@@H]3C[C@H]4C(C)(C)O[C@@](CC=C(C)C)(C3=O)[C@@]14O2 [GB32] the inhibition at 20 µM ([1]; BT-474, 72 h) was 99%, the inhibition at 20 µM ([2]; BT-549, 72 h) was 99% and the inhibition at 20 µM ([3]; Bel-7402, 72 h) was 99%. The inhibition at 20 µM ([4]; C3A, 72 h) was 99%, the inhibition at 20 µM ([5]; C8166, 72 h) was 99% and the inhibition at 20 µM ([6]; CCF-STTG1, 72 h) was 99%. It also gave an inhibition at 20 µM ([7]; ChaGo-K-1, 72 h) of 99%, an inhibition at 20 µM ([8]; COLO 205, 72 h) of 99% and an inhibition at 20 µM ([9]; HCC1569, 72 h) of 99%. The inhibition at 20 µM ([10]; HCC1599, 72 h) was 100%, the inhibition at 20 µM ([11]; HCC1937, 72 h) was 99% and the inhibition at 20 µM ([12]; HEC-1-A, 72 h) was 99%. It also gave an inhibition at 20 µM ([13]; HGC-27, 72 h) of 99%, an inhibition at 20 µM ([14]; HPAF-II, 72 h) of 99% and an inhibition at 20 µM ([15]; HT1197, 72 h) of 99%. It also gave an inhibition at 20 µM ([16]; M059J, 72 h) of 99%, an inhibition at 20 µM ([17]; NCI-H1623, 72 h) of 99% and an inhibition at 20 µM ([18]; NCI-H1694, 72 h) of 100%. For the same compound, the inhibition at 20 µM ([19]; NCI-H1770, 72 h) was 99%, the inhibition at 20 µM ([20]; NCI-H2347, 72 h) was 98% and the inhibition at 20 µM ([21]; NCI-H2405, 72 h) was 99%. For the same compound, the inhibition at 20 µM ([22]; NCI-H28, 72 h) was 99%, the inhibition at 20 µM ([23]; NCI-H524, 72 h) was 99% and the inhibition at 20 µM ([24]; PANC-03-27, 72 h) was 99%. It also gave an inhibition at 20 µM ([25]; 72 h) of 99%, an inhibition at 20 µM ([26]; T47D, 72 h) of 99% and an inhibition at 20 µM ([27]; T98G, 72 h) of 99%. It also gave an inhibition at 20 µM ([28]; ZR-75-30, 72 h) of 99%.

CC(C)=CCC[C@@]1(C)C=Cc2c(O)c3c(c(CCC(C)(C)O)c2O1)O[C@]12C(=C[C@@H]4C[C@H]1C(C)(C)O[C@@]2(C/C=C(/C)C(=O)O)C4=O)C3=O [GB39, 33-hydroxyepigambogic acid] gave an inhibition at 20 µM ([1]; BT-474 (Breast), 20 micromolar, 72 hrs) of 100%, an inhibition at 20 µM ([2]; BT-549 (Breast), 20 micromolar, 72 hrs) of 100% and an inhibition at 20 µM ([3]; Bel-7402 (Liver), 20 micromolar, 72 hrs) of 100%. It also gave an inhibition at 20 µM ([4]; C3A (Liver), 20 micromolar, 72 hrs) of 99%, an inhibition at 20 µM ([5]; C8166 (Leukemia), 20 micromolar, 72 hrs) of 100% and an inhibition at 20 µM ([6]; CCF-STTG1 (Brain), 20 micromolar, 72 hrs) of 100%. For the same compound, the inhibition at 20 µM ([7]; ChaGo-K-1 (Lung), 20 micromolar, 72 hrs) was 100%, the inhibition at 20 µM ([8]; Colo 205, 20 micromolar, 72 hrs) was 100% and the inhibition at 20 µM ([9]; HCC1569 (Breast), 20 micromolar, 72 hrs) was 100%. It also gave an inhibition at 20 µM ([10]; HCC1599 (Breast), 20 micromolar, 72 hrs) of 100%, an inhibition at 20 µM ([11]; HCC1937 (Breast), 20 micromolar, 72 hrs) of 100% and an inhibition at 20 µM ([12]; HEC-1-A (Uterus), 20 micromolar, 72 hrs) of 100%. For the same compound, the inhibition at 20 µM ([13]; HGC-27 (Stomach), 20 micromolar, 72 hrs) was 100%, the inhibition at 20 µM ([14]; HPAF-II (Pancreas), 20 micromolar, 72 hrs) was 100% and the inhibition at 20 µM ([15]; HT1197, HT-1197 (Urinary bladder), 20 micromolar, 72 hrs) was 100%. For the same compound, the inhibition at 20 µM ([16]; M059J (Brain), 20 micromolar, 72 hrs) was 100%, the inhibition at 20 µM ([17]; NCI-H1623 (Lung), 20 micromolar, 72 hrs) was 100% and the inhibition at 20 µM ([18]; NCI-H1694 (Lung), 20 micromolar, 72 hrs) was 100%. For the same compound, the inhibition at 20 µM ([19]; NCI-H1770 (Lung), 20 micromolar, 72 hrs) was 100%, the inhibition at 20 µM ([20]; NCI-H2347 (Lung), 20 micromolar, 72 hrs) was 99% and the inhibition at 20 µM ([21]; NCI-H2405 (Lung), 20 micromolar, 72 hrs) was 100%. It also gave an inhibition at 20 µM ([22]; NCI-H28 (Lung), 20 micromolar, 72 hrs) of 99%, an inhibition at 20 µM ([23]; NCI-H524 (Lung), 20 micromolar, 72 hrs) of 100% and an inhibition at 20 µM ([24]; PANC-03-27, Panc 03.27 (Pancreas), 20 micromolar, 72 hrs) of 100%. The inhibition at 20 µM ([25]; RL95 (Uterus), 20 micromolar, 72 hrs) was 100%, the inhibition at 20 µM ([26]; T47D (Breast), 20 micromolar, 72 hrs) was 100% and the inhibition at 20 µM ([27]; T98G (Brain), 20 micromolar, 72 hrs) was 100%. The inhibition at 20 µM ([28]; ZR-75-30 (Breast), 20 micromolar, 72 hrs) was 100%.
